Reference: patent US20070082397A1, “Ex vivo progenitor and stem cell expansion for use in the treatment of disease of endodermally-derived organs” (priority 2003, published 2007)
Entries after “also recorded” stand apart in the source; their conditions may differ.

Key:
[1] = test system: hepatocytes from adult mouse livers; assay: Primary adult mouse hepatocyte culture: expansion of hepatic stem (oval) cells; type: cell-based; settings: for oval cells in hepatocyte culture: medium supplemented with 10 μM AGN 194310 or TEPA 10 μM, FIG. 1; for growth of cultured hepatocytes and appearance of hepatic stem (oval) cells: primary culture with EGF and HGF, TEPA 10 μM or AGN 194310 10 μM, compared with control cultures without additions
Description: Intact livers were harvested from 3 week old VLVC female mice (Harlan Laboratories, Jerusalem, Israel), dissected and washed twice with DMEM (Beit Haemek, Israel), incubated with DMEM in the presence 0.05% collagenase for 30 minutes at 37° C., ground and passed through a 200 μm mesh sieve, yielding individual hepatocytes. Cells were washed twice and viability was ascertained with trypan blue. Cells were plated in collagen-coated, 35 mm tissue culture plates at a density of 4-×10^4 live cells/ml in F12 media (containing 15 mM Hepes, 0.1% glucose, 10 mM sodium bicarbonate, 100 units/ml penicillin-streptomycin, glutamine, 0.5 units/ml insulin, 7.5 m cg/ml hydrocortisone, and 10% fetal bovine serum). Medium was changed after 12 hours, the cells were washed twice with phosphate buffered saline (PBS) and new medium was added. Medium was changed twice a week.
Hepatocytes were also grown in the presence of Epidermal Growth Factor (EGF), Platelet-Derived Growth Factor β chain (PDGF-BB), Fibroblast growth Factors (FGF-4) and Hepatocyte Growth Factor (HGF), at 20-50 ng/ml each, for the entire culturing period according to the method of Schwartz et al. (Schwartz R E, Reyes M, Koodie L, Jiang Y, Blackstad M, Lund T, Lenvik T, Johnson S, Hu W S, Verfaillie C M. Multipotent adult progenitor cells from bone marrow differentiate into functional hepatocyte-like cells. J Clin Invest. 2002; 109 (10): 1291-302). Hepatocytes were also grown in serum free medium according to the method of Runge et al. (Runge D, Runge D M, Jager D, Lubecki K A, Beer Stolz D, Karathanasis S, Kietzmann T, Strom S C, Jungermann K, Fleig W E, Michalopoulos G K. Serum-free, long-term cultures of human hepatocytes: maintenance of cell morphology, transcription factors, and liver-specific functions. Biochem Biophys Res Commun. 2000; 269(1): 46-53).
In all of the above-mentioned hepatocytes culture conditions, cells are grown in the presence or absence of the retinoic acid antagonist AGN 194310 or the transition metal chelator tetraethylenepentamine TEPA) at 10^−5 M.
After a period of 3 weeks, cultures treated with 10^−5 M AGN 194310 or TEPA were detached with 0.25% trypsin, split and replated at a 1:2 ratio. The cells were visualized with Giemsa staining.
Murine hepatocyte cultures supplemented with EGF and HGF were evaluated as primary cultures, or following first and second passages. First passage cultures were grown for 2 weeks, split 1:2 and cells stained 8 days later. Second passage cultures were similarly grown for 2 weeks, split 1:2, and grown for an additional week, then split 1:4 and similarly stained 4 days later.
Hepatocytes and ex-vivo expanded cells were fixed in methanol directly in their cell culture plates and each procedure performed by standard procedures as outlined below.
Ex-vivo expanded cells and hepatocytes were stained with Giemsa stain, according to manufacturer's instructions (Shandon, Pittsburg, Pa.) for 4 minutes at room temperature, washed in buffer solution for 4 minutes, washed 3-4 times with rinse solution and visualized by light microscopy. Nuclei were stained with hematoxylin (Dako, Carpinteria, Calif.).

[2] = cited from earlier work
[3] = test system: cord-blood-derived, bone marrow-derived, and peripheral blood derived stem and progenitor cells; settings: grown without a feeder layer; cited from earlier work
[4] = test system: erythroid progenitor cells, cultured mouse erythroleukemia cells, embryonal stem cells, and hepatocytes in primary hepatocyte culture; settings: cited from earlier work
[5] = test system: stem and progenitor hematopoietic cells; settings: cited from earlier work

Structure (SMILES) | oval cells in hepatocyte culture [1] | growth of cultured hepatocytes and appearance of hepatic stem (oval) cells [1] | membrane permeability [2] | persistence of treated hepatocyte cultures in culture ([1]; primary hepatocyte cultures) | fraction of CD34+ cells and their long-term clonability [3] | proliferation and differentiation [4] | long term ex vivo stem cell proliferation and differentiation [5]
CCc1ccc(C2=CC(C)(C)Sc3ccc(C#Cc4ccc(C(=O)O)cc4)cc32)cc1 [AGN 194310] | abundance of oval cells | clearly induced growth of the cultured hepatocytes, and the appearance of hepatic stem (oval) cells | – | – | – | – | –
O=c1cc(N2CCOCC2)oc2c(-c3ccccc3)cccc12 [LY294002] | – | – | membrane permeable | – | – | – | –
NCCNCCNCCNCCN [TEPA, tetraethylenepentamine] | abundance of oval cells; also recorded: increase in the proportion of oval cells | clearly induced growth of the cultured hepatocytes, and the appearance of hepatic stem (oval) cells | – | at least 3 weeks | greatly enhanced the fraction of CD34^+ cell and their long-term clonability | Facilitation of proliferation while inhibiting differentiation | effective promotion of long term ex vivo stem cell proliferation, while inhibiting differentiation
